Measurements published in PubChem BioAssay (NCI).
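Cells were grown in 96-well plates and exposed to each compound for 48 hours at five concentrations; endpoints were interpolated linearly between bracketing concentrations, or set to the highest concentration if not reached. Definition used: TGI = concentration required for complete inhibition of growth.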

Key:
Assay in all cases: DTP human tumour cell line panel, 48 h
786-0 renal = system: 786-0 renal
A498 renal = system: A498 renal
A549 NSCLC = system: A549 NSCLC
ACHN renal = system: ACHN renal
COLO 205 colon = system: COLO 205 colon
DLD-1 colon = system: DLD-1 colon
DMS 114 small cell lung = system: DMS 114 small cell lung
DMS 273 small cell lung = system: DMS 273 small cell lung
EKVX NSCLC = system: EKVX NSCLC
HCC-2998 colon = system: HCC-2998 colon
HCT-116 colon = system: HCT-116 colon
HCT-15 colon = system: HCT-15 colon
HL-60(TB) leukemia = system: HL-60(TB) leukemia
HOP-18 NSCLC = system: HOP-18 NSCLC
HOP-62 NSCLC = system: HOP-62 NSCLC
HOP-92 NSCLC = system: HOP-92 NSCLC
HT29 colon = system: HT29 colon
IGROV1 ovarian = system: IGROV1 ovarian
K-562 leukemia = system: K-562 leukemia
KM12 colon = system: KM12 colon
KM20L2 colon = system: KM20L2 colon
LOX IMVI melanoma = system: LOX IMVI melanoma
LXFL 529 NSCLC = system: LXFL 529 NSCLC
M14 melanoma = system: M14 melanoma
M19-MEL melanoma = system: M19-MEL melanoma
MALME-3M melanoma = system: MALME-3M melanoma
NCI-H23 lung = system: NCI-H23 lung
NCI-H460 lung = system: NCI-H460 lung
NCI-H522 lung = system: NCI-H522 lung
OVCAR-3 ovarian = system: OVCAR-3 ovarian
OVCAR-4 ovarian = system: OVCAR-4 ovarian
OVCAR-5 ovarian = system: OVCAR-5 ovarian
OVCAR-8 ovarian = system: OVCAR-8 ovarian
RPMI-8226 leukemia = system: RPMI-8226 leukemia
RXF 393 renal = system: RXF 393 renal
RXF-631 renal = system: RXF-631 renal
SF-268 CNS = system: SF-268 CNS
SF-295 CNS = system: SF-295 CNS
SF-539 CNS = system: SF-539 CNS
SK-MEL-2 melanoma = system: SK-MEL-2 melanoma
SK-MEL-28 melanoma = system: SK-MEL-28 melanoma
SK-MEL-5 melanoma = system: SK-MEL-5 melanoma
SK-OV-3 ovarian = system: SK-OV-3 ovarian
SN12C renal = system: SN12C renal
SNB-19 CNS = system: SNB-19 CNS
SNB-75 CNS = system: SNB-75 CNS
SNB-78 CNS = system: SNB-78 CNS
SR leukemia = system: SR leukemia
SW-620 colon = system: SW-620 colon
TK-10 renal = system: TK-10 renal
U251 CNS = system: U251 CNS
UACC-257 melanoma = system: UACC-257 melanoma
UACC-62 melanoma = system: UACC-62 melanoma
UO-31 renal = system: UO-31 renal
XF 498 CNS = system: XF 498 CNS

SMILES: CCOC(=O)C1=C(C)N(NC(=O)Nc2ccccc2)C2(N)N(NC(=O)Nc3ccccc3)C(C)=C(C(=O)OCC)C12C(=O)OCC (stereo not given)
- TGI (786-0 renal): > 100 µM
- TGI (A498 renal): > 100 µM
- TGI (A549 NSCLC): > 100 µM
- TGI (ACHN renal): > 100 µM
- TGI (COLO 205 colon): 3.25 µM
- TGI (DLD-1 colon): > 100 µM
- TGI (DMS 114 small cell lung): > 100 µM
- TGI (DMS 273 small cell lung): > 100 µM
- TGI (EKVX NSCLC): > 100 µM
- TGI (HCC-2998 colon): 80.8 µM
- TGI (HCT-116 colon): 80.2 µM
- TGI (HCT-15 colon): > 100 µM
- TGI (HL-60(TB) leukemia): > 100 µM
- TGI (HOP-18 NSCLC): 54.6 µM
- TGI (HOP-62 NSCLC): 84.7 µM
- TGI (HOP-92 NSCLC): 42.8 µM
- TGI (HT29 colon): > 100 µM
- TGI (IGROV1 ovarian): > 100 µM
- TGI (K-562 leukemia): > 100 µM
- TGI (KM12 colon): > 100 µM
- TGI (KM20L2 colon): > 100 µM
- TGI (LOX IMVI melanoma): > 100 µM
- TGI (LXFL 529 NSCLC): > 100 µM
- TGI (M14 melanoma): > 100 µM
- TGI (M19-MEL melanoma): > 100 µM
- TGI (MALME-3M melanoma): 93.5 µM
- TGI (NCI-H23 lung): > 100 µM
- TGI (NCI-H460 lung): > 100 µM
- TGI (NCI-H522 lung): > 100 µM
- TGI (OVCAR-3 ovarian): > 100 µM
- TGI (OVCAR-4 ovarian): > 100 µM
- TGI (OVCAR-5 ovarian): > 100 µM
- TGI (OVCAR-8 ovarian): > 100 µM
- TGI (RPMI-8226 leukemia): > 100 µM
- TGI (RXF 393 renal): 22.4 µM
- TGI (RXF-631 renal): > 100 µM
- TGI (SF-268 CNS): > 100 µM
- TGI (SF-295 CNS): > 100 µM
- TGI (SF-539 CNS): 53.4 µM
- TGI (SK-MEL-2 melanoma): > 100 µM
- TGI (SK-MEL-28 melanoma): > 100 µM
- TGI (SK-MEL-5 melanoma): > 100 µM
- TGI (SK-OV-3 ovarian): > 100 µM
- TGI (SN12C renal): 3.01 µM
- TGI (SNB-19 CNS): > 100 µM
- TGI (SNB-75 CNS): 98.1 µM
- TGI (SNB-78 CNS): > 100 µM
- TGI (SR leukemia): > 100 µM
- TGI (SW-620 colon): > 100 µM
- TGI (TK-10 renal): > 100 µM
- TGI (U251 CNS): > 100 µM
- TGI (UACC-257 melanoma): > 100 µM
- TGI (UACC-62 melanoma): > 100 µM
- TGI (UO-31 renal): > 100 µM
- TGI (XF 498 CNS): 37.9 µM
